Measured values: PMC10175918 (Communications Biology, 2023)
Several values for one entry are separate records, joined by “and”; a condition that tells them apart may be missing. Equal values may be shown once. Read-outs that look alike come from different tables or passages of the source.

Key:
UTS2R T304V = assay: TGFα-shedding assay on UTS2R mutant T304V; type: cell-based, human; details: cutoff value set to −1, single replicates
UTS2R N297A = assay: TGFα-shedding assay on UTS2R mutant N297A; type: cell-based, human; details: cutoff value set to −1, single replicates
UTS2R M134A = assay: TGFα-shedding assay on UTS2R mutant M134A; type: cell-based, human; details: cutoff value set to −1, single replicates
UTS2R M134T = assay: TGFα-shedding assay on UTS2R mutant M134T; type: cell-based, human; details: cutoff value set to −1, single replicates
UTS2R D130N = molecular target: T1, UTS2R D130N (Homo sapiens, UniProt Q9UKP6, D130N); assay: TGFα-shedding assay on UTS2R mutant D130N; type: cell-based
T1 construct: expressed in transfected cells; host or cells: HEK293A

UTS2R G68C = assay: TGFα-shedding assay on UTS2R SNV mutant G68C; type: cell-based, human; details: cutoff value set to −1, single replicates
UTS2R A249G = assay: TGFα-shedding assay on UTS2R SNV mutant A249G; type: cell-based, human; details: cutoff value set to −1, single replicates
[1] = molecular target: T2, UTS2R (β-arrestin 1 recruitment) (Homo sapiens, UniProt Q9UKP6); assay: NanoBiT β-arrestin 1 recruitment assay for UTS2R; type: cell-based; details: β-arrestin 1, Fig. 1c
T2 construct: expressed in transfected cells; host or cells: HEK293A

[2] = molecular target: T3, UTS2R (β-arrestin 2 recruitment) (Homo sapiens, UniProt Q9UKP6); assay: NanoBiT β-arrestin 2 recruitment assay for UTS2R; type: cell-based; details: β-arrestin 2, Supplementary Fig. 1b
T3 construct: expressed in transfected cells; host or cells: HEK293A

FLAG-UTS2R = molecular target: T4, FLAG-UTS2R (Homo sapiens, UniProt Q9UKP6); assay: Competitive binding assay: biotin-UT2 pulldown of FLAG-UTS2R from HEK293 membrane fraction; details: membrane fraction of HEK293 cells expressing FLAG-UTS2R, streptavidin beads, western blot
T4 construct: expressed in transfected cells; host or cells: HEK293
Experimental: HEK293 cells were transfected with the plasmid encoding FLAG-UTS2R and were serum-starved for 6 h before experimentation. Cells were washed twice with ice-cold PBS. Hypotonic solution (50 mM HEPES, pH 7.5 with protease inhibitor cocktails) was added to the cell plate, and the cells were harvested by scraping. Cells were homogenized using a dounce homogenizer (IKA EUROSTAR 20 digital) at 2,000 rpm for 20 strokes at 4 °C, and further homogenized using a tissue rupture (Qiagen) for 5 s at 4 °C. The homogenate was centrifuged at 800 x g for 10 min at 4 °C to remove unbroken cells and the nucleus. The supernatant was further centrifuged at 30,000×g for 30 min at 4° (CP80NX, himac). The resulting pellet was used as crude membrane fraction and was suspended in hyperosmotic solution (50 mM HEPES, pH 7.5, 250 mM NaCl, 2 mM EDTA with protease inhibitor).
The biotin-UT2-bound UTS2R complex was solubilized using a hyperosmotic buffer containing detergent (N-Dodecyl-β-D-maltopyranoside; DDM, 5× CMC) and pulled down using streptavidin magnetic beads. The suitable beads for the experiment were selected from 5 types (Supplementary Fig. 1d, Dynabeads Streptavidin Trial Kit, Thermo Fisher, and Streptavidin magnetic beads, NEB) and denatured with SDS buffer. […]

[3] = test system: ERK1/2 phosphorylation in HEK293 cells overexpressing UTS2R; assay: Western blot of ERK1/2 phosphorylation in HEK293 cells overexpressing UTS2R; type: cell-based, human; details: application for up to 72 h
hiPS-CMs = assay: Perforated patch-clamp, spontaneous action potentials (APD90) of hiPS-CMs; type: cell-based, human; details: 10 µM remdesivir, 72 h
[4] = test system: adult mouse cardiomyocytes; assay: Contractility under pacing of adult mouse cardiomyocytes; type: cell-based; details: 10 µM remdesivir, 30 min
Experimental: C57BL/6J mice for the isolation of adult mouse cardiomyocytes were purchased from Japan SLC Inc. (Shizuoka, Japan). Isolation of adult mouse ventricular cardiomyocytes was performed. Male mice were anesthetized by inhalation with isoflurane. The heart was quickly excised, and the aorta was clamped with a small vascular clamp. The heart was antegradely perfused with isolation buffer (less than 3 mL) containing 130 mM NaCl, 5.4 mM KCl, 0.5 mM MgCl2, 0.33 mM NaH2PO4, 25 mM HEPES, 22 mM glucose, and 50 μU/mL bovine insulin (Sigma) (pH 7.4, adjusted with NaOH) supplemented with 0.4 mM EGTA, followed by the perfusion of enzyme solution (10 mL) (isolation buffer containing 1 mg/mL collagenase type 2 (Worthington), 0.06 mg/mL trypsin (Sigma), 0.06 mg/mL protease (Sigma), and 0.3 mM CaCl2). Thereafter, the LV chamber was removed and cut into small pieces in an enzyme solution containing 0.2% bovine serum albumin (BSA) and 0.7 mM CaCl2. The tissue-cell suspension was filtered through a cell strainer (100 μm, Falcon) and centrifuged for 3 min at 50×g. After removing the supernatant, the cell pellet was resuspended in isolation buffer supplemented with 0.2% BSA and 1.2 mM CaCl2 and incubated for 7 min at 37 °C. […]
Microscopic images of cardiomyocytes were recorded for 13 seconds under pacing conditions. […] Imaging data were analyzed using Fiji software.

[5] = test system: mitochondrial respiratory complex proteins; assay: Western blot of mitochondrial respiratory complex proteins in UTS2R-transfected HEK293A cells; type: cell-based, human; details: 10 μM remdesivir, 48 h
[6] = test system: neonatal rat cardiomyocytes (NRCMs); details: for Contraction [a.u.]: 48 h
[7] = cited from earlier work

T1 sequence (Q9UKP6 whole entry D130N): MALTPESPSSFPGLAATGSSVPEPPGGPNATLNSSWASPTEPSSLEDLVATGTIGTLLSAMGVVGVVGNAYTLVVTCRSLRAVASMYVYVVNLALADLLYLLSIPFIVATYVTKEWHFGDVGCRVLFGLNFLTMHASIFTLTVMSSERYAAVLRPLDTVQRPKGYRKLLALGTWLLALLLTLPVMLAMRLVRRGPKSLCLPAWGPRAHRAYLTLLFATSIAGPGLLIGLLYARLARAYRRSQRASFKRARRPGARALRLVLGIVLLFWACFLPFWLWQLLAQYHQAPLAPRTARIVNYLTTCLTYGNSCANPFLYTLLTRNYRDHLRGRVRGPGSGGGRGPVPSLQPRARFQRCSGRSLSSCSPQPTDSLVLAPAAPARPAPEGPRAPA
T2 sequence (Q9UKP6 whole entry): as the sequence (Q9UKP6 whole entry D130N) above, with N130D counted along it
T3 sequence (Q9UKP6 whole entry): as the sequence (Q9UKP6 whole entry D130N) above, with N130D counted along it
T4 sequence (Q9UKP6 whole entry): as the sequence (Q9UKP6 whole entry D130N) above, with N130D counted along it

CCC(CC)COC(=O)[C@H](C)N[P@](=O)(OC[C@H]1O[C@@](C#N)(c2ccc3c(N)ncnn23)[C@H](O)[C@@H]1O)Oc1ccccc1 [remdesivir]
⊿pEC50 compared to WT UTS2R (UTS2R T304V): -1 | ⊿pEC50 compared to WT UTS2R (UTS2R N297A): -1 and -0.7407 | ⊿pEC50 compared to WT UTS2R (UTS2R M134A): -1 | ⊿pEC50 compared to WT UTS2R (UTS2R M134T): -1 | receptor activation of D130N mutant (UTS2R D130N; D130N mutation vs WT, TGFα-shedding): significantly upregulated | ⊿pEC50 compared to WT UTS2R (UTS2R D130N; D130N, cutoff value set to −1, single replicates): 0.5051 and 0.5402 and 0.5471 and 0.5928 and 0.4845 | ⊿pEC50 compared to WT UTS2R (UTS2R G68C): > 0.3 and 0.5256 and 0.7054 and 0.6735 and 0.5172 | ⊿pEC50 compared to WT UTS2R (UTS2R A249G): > 0.3 and 0.2782 and 0.2736 and 0.3671 and 0.2913 | β-arrestin recruitment response [1]: failed to induce a β-arrestin recruitment response | β-arrestin recruitment response [2]: failed to induce a β-arrestin recruitment response | biotin–UT2-mediated UTS2R pulldown (FLAG-UTS2R): significantly impaired | phosphorylation of ERK1/2 [3]: long-lasting and dose-dependent phosphorylation of ERK1/2 | APD90 (action potential duration at 90% repolarization) (hiPS-CMs): significantly prolonged | contraction of adult cardiomyocytes [4]: significantly impaired the contraction | steady-state levels of mitochondrial respiratory complex proteins [5]: did not affect | Contraction [a.u.] ([6]; Fig.4a, 1 µM remdesivir, pacing, replicates): 0.1429 a.u. and 0.1533 a.u. and 0.1024 a.u. | Contraction [a.u.] ([6]; Fig.4a, urantide (100 nM) + 1 µM remdesivir): 0.2641 a.u. and 0.2651 a.u. and 0.2715 a.u. | Contraction [a.u.] ([6]; Fig.4b, 1 µM remdesivir, pacing, replicates): 0.1019 a.u. and 0.1158 a.u. and 0.1194 a.u. | Contraction [a.u.] ([6]; Fig.4b, PTX (150 ng/mL) + 1 µM remdesivir): 0.3302 a.u. and 0.3344 a.u. and 0.3245 a.u. | Contraction [a.u.] ([6]; Fig.4b, YM-254890 (1 μM) + 1 µM remdesivir): 0.108 a.u. and 0.1376 a.u. and 0.1361 a.u. | contractility of NRCMs ([6]; chronic remdesivir treatment, constant pacing): reduced contractility | patients showing arrhythmias (other than atrial fibrillation, supraventricular tachycardia, ventricular tachycardia, ventricular fibrillation) ([7]; ACTT-1 trial, patients receiving remdesivir): 0.2 % of patients | time to resolution of cardiac adverse effects after discontinuing remdesivir [7]: 24 to 48 h
